Reference: patent US20040072746A1, “Inhibitors of monocarboxylate transport” (priority 2001, published 2004)

Assays:
[1] = molecular target: T1, human MCT4 (Homo sapiens, UniProt O15427); experiment: MCT filter binding assay, yeast membranes, radioligand specific binding; settings: ~2.5 nM radioligand
T1 construct: from the full length copy and subcloned into the S. cerevisiae expression plasmid pACES14; made in house; host or cells: Saccharomyces cerevisiae BY4742 (jen1 deletion), membrane preparation; plasmid pACES14-hMCT4
T1 sequence (O15427 1-465): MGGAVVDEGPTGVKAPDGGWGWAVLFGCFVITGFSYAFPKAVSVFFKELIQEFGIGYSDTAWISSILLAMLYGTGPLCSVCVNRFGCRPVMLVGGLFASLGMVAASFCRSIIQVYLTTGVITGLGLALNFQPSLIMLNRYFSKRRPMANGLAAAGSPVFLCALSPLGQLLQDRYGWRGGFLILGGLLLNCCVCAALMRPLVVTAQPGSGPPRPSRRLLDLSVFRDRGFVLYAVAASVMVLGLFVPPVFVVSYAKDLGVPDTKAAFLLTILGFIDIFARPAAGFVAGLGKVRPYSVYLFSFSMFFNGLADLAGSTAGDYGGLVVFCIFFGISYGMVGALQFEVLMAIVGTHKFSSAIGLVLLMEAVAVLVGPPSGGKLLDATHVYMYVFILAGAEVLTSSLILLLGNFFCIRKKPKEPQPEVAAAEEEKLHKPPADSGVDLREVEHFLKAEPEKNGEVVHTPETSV
Protocol: (§1) For yeast cells transformed with expression plasmids containing the human MCT 1-4 ORFs the ability of membrane preparations to bind radioligand was determined using a single ligand concentration/multi protein concentration binding assay. This generated an estimate of the amount of active binding protein present in each membrane preparation. The ligand concentration used will give an estimate of Bmax that is approximately 90% of the true value. 10 μl of ligand A, B or C that had been diluted 50 fold with assay buffer (50 mM HEPES, 0.1 mM EDTA, 0.15 M NaCl, pH 7.5, 0.5% BSA) was dispensed into wells of a polypropylene microtitre plate. This gives a final radiolabelled ligand concentration of ˜2.5 nM. […] The membranes were diluted to give a known amount/180 μl assay buffer. This is typically in the […] range. For the membranes with high binding site number a more dilute membrane preparation should be added. 180 μl of each membrane solution was then added to each well and incubated at 2 hours at room temperature with shaking. The membranes were harvested onto GF-B filter plates and washed with assay buffer without BSA, dried, scintillant added and counts detected using the relevant program for each ligand on a Packard Top Count plate reader.

[2] = molecular target: T2, human MCT2 (Homo sapiens, UniProt O60669); experiment: as above; settings: ~2.5 nM radioligand
T2 construct: The full length open reading frame for human MCT2 was then subcloned into the S. cerevisiae expression plasmid, pACES14; made in house; host or cells: Saccharomyces cerevisiae BY4742 (jen1 deletion), membrane preparation; plasmid pACES14-hMCT2
T2 sequence (O60669 1-478): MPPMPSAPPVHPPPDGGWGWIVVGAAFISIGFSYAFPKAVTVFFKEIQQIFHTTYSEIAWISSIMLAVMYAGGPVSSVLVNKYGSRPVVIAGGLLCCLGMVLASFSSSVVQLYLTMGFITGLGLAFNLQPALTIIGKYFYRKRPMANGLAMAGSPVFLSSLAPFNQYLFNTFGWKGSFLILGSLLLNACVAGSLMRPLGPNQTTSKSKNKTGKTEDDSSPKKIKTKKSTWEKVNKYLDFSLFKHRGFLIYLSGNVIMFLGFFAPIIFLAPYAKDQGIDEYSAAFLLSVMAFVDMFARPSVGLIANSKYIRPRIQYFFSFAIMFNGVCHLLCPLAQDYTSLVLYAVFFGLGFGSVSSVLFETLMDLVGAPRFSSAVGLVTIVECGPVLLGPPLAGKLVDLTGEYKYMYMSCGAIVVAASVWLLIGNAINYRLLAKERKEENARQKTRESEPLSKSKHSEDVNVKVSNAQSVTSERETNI
Protocol: as §1

## CC(C)Cc1nn(C)c(=O)c2c(SCCCO)n(Cc3ccccc3[125I])cc12 [Ligand A, 2,6-Dihydro-7-[(3-hydroxypropyl)thio]-6-[(2-[^125I]iodophenyl)methyl]-2-methyl-4-(2-methylpropyl)-1H-pyrrolo[3,4-d]pyridazin-1-one]
[1]; MCT4 (2 ug)
  Specific binding (cpm) Average: 405 cpm
[1]; MCT4 (20 ug)
  Specific binding (cpm) Average: 872 cpm
[2]; MCT2 (2 ug)
  Specific binding (cpm) Average: 7286 cpm
[2]; MCT2 (20 ug)
  Specific binding (cpm) Average: 14769 cpm
